Nc1c([N+](=O)[O-])c2no[n+]([O-])c2c2no[n+]([O-])c12
solubility (mole fraction)
Details | 288.15 K | 293.15 K | 298.15 K | 303.15 K | 308.15 K | 313.15 K | 318.15 K | 323.15 K | 328.15 K | 333.15 K
in 1,2-dichloroethane | 2.98e-05 | 3.64e-05 | 4.41e-05 | 5.31e-05 | 6.32e-05 | 7.49e-05 | 8.9e-05 | 0.000105 | 0.000122 | 0.000142
in DMF | 0.00618 | 0.00747 | 0.00896 | 0.0107 | 0.0126 | 0.0149 | 0.0175 | 0.0204 | 0.0236 | 0.0273
in DMSO | – | 0.0118 | 0.0138 | 0.0161 | 0.0187 | 0.0217 | 0.0249 | 0.0286 | 0.0327 | 0.0373
in NMP | 0.00799 | 0.00948 | 0.0112 | 0.0131 | 0.0153 | 0.0178 | 0.0206 | 0.0237 | 0.0272 | 0.031
in acetic acid | – | 7.86e-05 | 9.36e-05 | 0.000112 | 0.000131 | 0.000154 | 0.000178 | 0.000206 | 0.000237 | 0.000271
in acetone | 0.000797 | 0.00087 | 0.000968 | 0.00109 | 0.00123 | 0.00137 | 0.00154 | 0.00174 | – | –
in acetonitrile | 0.000322 | 0.000374 | 0.000434 | 0.000497 | 0.00057 | 0.000654 | 0.000744 | 0.000845 | 0.000956 | 0.00108
in cyclohexanone | 0.0018 | 0.00198 | 0.00218 | 0.0024 | 0.00266 | 0.00295 | 0.00328 | 0.00366 | 0.00409 | 0.00457
in dichloromethane | 1.37e-05 | 1.73e-05 | 2.15e-05 | 2.68e-05 | 3.31e-05 | – | – | – | – | –
in ethanol | 6.85e-06 | 8.94e-06 | 1.18e-05 | 1.52e-05 | 1.95e-05 | 2.47e-05 | 3.14e-05 | 3.94e-05 | 4.92e-05 | 6.02e-05
in ethyl acetate | 0.000211 | 0.000244 | 0.00028 | 0.000321 | 0.000367 | 0.000419 | 0.000475 | 0.000536 | 0.000605 | 0.000681
in methanol | 1.44e-05 | 1.88e-05 | 2.42e-05 | 3.14e-05 | 4.01e-05 | 5.01e-05 | 6.33e-05 | 7.91e-05 | 9.73e-05 | 0.000121
in o-xylene | 2.4e-05 | 3.15e-05 | 4.14e-05 | 5.34e-05 | 6.87e-05 | 8.74e-05 | 0.000109 | 0.000137 | 0.000169 | 0.000208
in propionic acid | 1.94e-05 | 2.45e-05 | 3.15e-05 | 3.97e-05 | 4.97e-05 | 6.16e-05 | 7.63e-05 | 9.37e-05 | 0.000114 | 0.00014
in toluene | 1.03e-05 | 1.34e-05 | 1.84e-05 | 2.45e-05 | 3.26e-05 | 4.29e-05 | 5.63e-05 | 7.28e-05 | 9.4e-05 | 0.00012
